Experimental data published in patent publication US4355026A, “4-Demethoxy,11-deoxy anthracycline derivatives” (priority 1980, dated 1982).
Values after ≈ are worked out from the molar mass of the structure shown. Where two headings read alike, the source gives them in different places.

What was measured:
L1210 leukemia cells [1] = assay: Antitumor activity on CDFI mouse leukemia induced by mouse L1210 leukemia cells; type: in vivo, CDFI mice; set-up: key to Toxicity: *: Toxicity-
Procedure: B. Antitumor Activity on CDFI Mouse Leukemia Induced by Mouse L1210 Leukemia cells
L1210 leukemia cells of mice were intraperitoneally transplanted in an amount of 1×10^5 cells/mouse in CDFI mice. Starting 24 hours after the transplantation, each of the test compounds was intraperitoneally administered to the mice for 10 consecutive days. the survival rate (T/C, %) was calculated in comparison with a control group (to which physiological saline was administered).

[2] = tested on: L1210 leukemia cells, RNA synthesis; assay: Inhibition of RNA synthesis (14C-uridine incorporation) of L1210 cultivated leukemic cells; type: cell-based; settings: Mus musculus, L1210, 1 h, 14C-uridine, 60 minutes, 37° C.; for IC50: read-out: IC50 RNA synthesis; for IC90: 90% inhibition, read-out: IC90 RNA synthesis
Procedure: (§1) A. Inhibitory Effect on Growth, DNA Synthesis and RNA Synthesis of L1210 Cultivated Leukemic Cells of Mice
(§2) Separately, the above L1210 cultivated cells were suspended in a concentration of 5×10^5 cells/ml in an RPMI 1640 medium containing 10% calf serum and cultivated for 1 to 2 hours in a CO2 incubator at 37° C. Then, representative test compounds were added in various concentrations, and 15 minutes later, ^14 C-uridine (0.05 μCi/ml) or ^14 C-thymidine (0.05 μCi/ml) were added. The cells were incubated at 37° C. for 60 minutes. A 10% aqueous trichloroacetic acid solution was added to the incubation medium to stop the reaction and simultaneously precipitate acid-insoluble matter. The acid-insoluble matter was washed three times with a 5 to 10% aqueous solution of trichloroacetic acid and then dissolved in formic acid. The radioactivity of the acid-insoluble matter was measured. From the ratio of incorporated radiation to that of a control group, the concentrations which inhibited radiation by 10%, 50% and 90% respectively were measured.

[3] = tested on: L1210 leukemia cells, DNA synthesis; assay: Inhibition of DNA synthesis (14C-thymidine incorporation) of L1210 cultivated leukemic cells; type: cell-based; settings: Mus musculus, L1210, 1 h, 14C-thymidine, 60 minutes, 37° C.; for IC50: read-out: IC50 DNA synthesis; for IC90: 90% inhibition, read-out: IC90 DNA synthesis
Procedure: as §1, §2

Bacillus megatherium APF = assay: MIC on nutrient agar medium; type: cell-based
From the text: (§3) The compounds of formula I provided by the present invention are also characterized by their antimicrobial activity. Table 3 summarizes the minimum inhibitory concentrations (MIC) of representative compounds of the present invention against various microorganisms on a nutrient agar medium.

Escherichia coli NIHJ = assay: MIC on nutrient agar medium; type: cell-based
From the text: as §3

[4] = tested on: Corynebacterium bovis 1810; assay: MIC on nutrient agar medium; type: cell-based
From the text: as §3

[5] = tested on: Microccus lysodeikticus IFQ 3333; assay: MIC on nutrient agar medium; type: cell-based
From the text: as §3

Sarcina lutea PCI 1001 = assay: MIC on nutrient agar medium; type: cell-based; settings: Micrococcus luteus, PCI1001
From the text: as §3

[6] = tested on: Klebsiella pneumonia PCI 602; assay: MIC on nutrient agar medium; type: cell-based; settings: Klebsiella pneumoniae, PCI602
From the text: as §3

[7] = tested on: Mycobacterium smegmatis ATCC 607; assay: MIC on nutrient agar medium; type: cell-based; settings: Mycolicibacterium smegmatis, ATCC607
From the text: as §3

[8] = tested on: Bacillus subtilis PCI 219; assay: MIC on nutrient agar medium; type: cell-based; settings: PCI219
From the text: as §3

Microccus flavus FDA 16 = assay: MIC on nutrient agar medium; type: cell-based
From the text: as §3

[9] = tested on: Staphylococcus aureus smith; assay: MIC on nutrient agar medium; type: cell-based
From the text: as §3

Salmonella typhi T - 63 = assay: MIC on nutrient agar medium; type: cell-based; settings: Salmonella enterica
From the text: as §3

[10] = tested on: Pseudomonas aeruginosa A3; assay: MIC on nutrient agar medium; type: cell-based
From the text: as §3

[11] = tested on: Bacillus cereus ATCC 10702; assay: MIC on nutrient agar medium; type: cell-based; settings: ATCC10702
From the text: as §3

[12] = tested on: Shigella flexneri 46 JS 11811; assay: MIC on nutrient agar medium; type: cell-based; settings: 46JS11811
From the text: as §3

[13] = tested on: Bacillus subtilis NRRB- 558; assay: MIC on nutrient agar medium; type: cell-based; settings: NRRB558
From the text: as §3

[14] = tested on: Staphylococcus aureus FDA 209; assay: MIC on nutrient agar medium; type: cell-based; settings: FDA209
From the text: as §3

Candida albicans 3147 = assay: MIC on nutrient agar medium; type: cell-based
From the text: as §3

L1210 leukemia cells [15] = assay: Inhibitory effect on growth of L1210 cultivated leukemic cells of mice; type: cell-based; settings: Mus musculus, RPMI 1640, 20% calf serum, 37° C.
Procedure: as §1
For example, L1210 cells were inoculated in a concentration of 5×10^4 cells/ml in an RPMI 1640 culture medium (Roswell Park Memorial Institute 1640) containing 20% calf serum and, simultaneously, representative compounds of the present invention were added in a concentration of 0.1 and 0.5 μg/ml. The cells were cultivated in a CO2 generator at 37° C. The 50% growth inhibitory concentration with respect to a control group was then determined.

[16] = 0.15 mg/kg/day, intraperitoneal, 10 consecutive days
[17] = 0.3 mg/kg/day, intraperitoneal, 10 consecutive days
[18] = 0.6 mg/kg/day, intraperitoneal, 10 consecutive days
[19] = 1.25 mg/kg/day, intraperitoneal, 10 consecutive days
[20] = 2.5 mg/kg/day, intraperitoneal, 10 consecutive days
[21] = L1210, 24 h, 1 day later, read-out: IC50 growth, 1 day later
[22] = L1210, 48 h, 2 days later, read-out: IC50 growth, 2 days later

C[C@@H]1O[C@@H](O[C@H]2C[C@](O)(C(=O)CO)Cc3cc4c(c(O)c32)C(=O)c2ccccc2C4=O)C[C@H](N)[C@@H]1O (single isomer, unassigned; isomer 4) [4-Demethoxy-11-deoxy-adriamycin (7S,9S,1'α)isomer, 4-Demethoxy-11-deoxyadriamycin]
Survival rate (T/C, %) (L1210 leukemia cells [1]; [16]): 135%
Survival rate (T/C, %) (L1210 leukemia cells [1]; [17]): 162%
Survival rate (T/C, %) (L1210 leukemia cells [1]; [18]): 184%
Survival rate (T/C, %) (L1210 leukemia cells [1]; [19]): 308%
Survival rate (T/C, %) (L1210 leukemia cells [1]; [20]): 177%
Toxicity (L1210 leukemia cells [1]; [20]): *
antitumor activity on experimental animal tumors (in words) (L1210 leukemia cells [1]; experimental animal tumors): particularly noteworthy
IC50 [2]: 0.8 µg/mL (≈ 1.61 µM)
IC90 [2]: 4.6 µg/mL (≈ 9.25 µM)
IC50 [3]: 0.64 µg/mL (≈ 1.29 µM)
IC90 [3]: 5.6 µg/mL (≈ 11.3 µM)
MIC (Bacillus megatherium APF): 12.5 µg/mL (≈ 25.1 µM)
MIC (Escherichia coli NIHJ): > 100 µg/mL
MIC [4]: 100 µg/mL (≈ 201 µM)
MIC [5]: 50 µg/mL (≈ 101 µM)
MIC (Sarcina lutea PCI 1001): 100 µg/mL (≈ 201 µM)
MIC [6]: > 100 µg/mL
MIC [7]: 12.5 µg/mL (≈ 25.1 µM)
MIC [8]: 12.5 µg/mL (≈ 25.1 µM)
MIC (Microccus flavus FDA 16): 50 µg/mL (≈ 101 µM)
MIC [9]: 12.5 µg/mL (≈ 25.1 µM)
MIC (Salmonella typhi T - 63): > 100 µg/mL
MIC [10]: > 100 µg/mL
MIC [11]: 25 µg/mL (≈ 50.3 µM)
MIC [12]: > 100 µg/mL
MIC [13]: 12.5 µg/mL (≈ 25.1 µM)
MIC [14]: 100 µg/mL (≈ 201 µM)
MIC (Candida albicans 3147): > 100 µg/mL
IC50 (L1210 leukemia cells [15]; [21]): 0.07 µg/mL (≈ 0.141 µM)
IC50 (L1210 leukemia cells [15]; [22]): 0.03 µg/mL (≈ 0.0603 µM)

CC(=O)[C@@]1(O)Cc2cc3c(c(O)c2[C@H](O[C@H]2C[C@H](N)[C@H](O)[C@H](C)O2)C1)C(=O)c1ccccc1C3=O (single isomer, unassigned; isomer 4) [4-Demethoxy-11-deoxy-daunomycin (7R,9R,1'α)isomer, 4-Demethoxy-11-deoxydaunomycin]
IC50 [2]: 9 µg/mL (≈ 18.7 µM)
IC90 [2]: > 10 µg/mL
IC50 [3]: 5.4 µg/mL (≈ 11.2 µM)
IC90 [3]: 13 µg/mL (≈ 27 µM)
MIC (Bacillus megatherium APF): 50 µg/mL (≈ 104 µM)
MIC (Escherichia coli NIHJ): > 100 µg/mL
MIC [4]: 100 µg/mL (≈ 208 µM)
MIC [5]: > 100 µg/mL
MIC (Sarcina lutea PCI 1001): 50 µg/mL (≈ 104 µM)
MIC [6]: > 100 µg/mL
MIC [7]: 100 µg/mL (≈ 208 µM)
MIC [8]: 100 µg/mL (≈ 208 µM)
MIC (Microccus flavus FDA 16): > 100 µg/mL
MIC [9]: > 100 µg/mL
MIC (Salmonella typhi T - 63): > 100 µg/mL
MIC [10]: > 100 µg/mL
MIC [11]: 50 µg/mL (≈ 104 µM)
MIC [12]: > 100 µg/mL
MIC [13]: 50 µg/mL (≈ 104 µM)
MIC [14]: > 100 µg/mL
MIC (Candida albicans 3147): > 100 µg/mL
IC50 (L1210 leukemia cells [15]; [21]): > 2.5 µg/mL
IC50 (L1210 leukemia cells [15]; [22]): > 2.5 µg/mL

CC(=O)[C@]1(O)Cc2cc3c(c(O)c2[C@@H](O[C@H]2C[C@H](N)[C@H](O)[C@H](C)O2)C1)C(=O)c1ccccc1C3=O (single isomer, unassigned; isomer 4) [4-Demethoxy-11-deoxy-daunomycin (7S,9S,1'α)isomer, 4-Demethoxy-11-deoxydaunomycin]
Survival rate (T/C, %) (L1210 leukemia cells [1]; [16]): 103%
Survival rate (T/C, %) (L1210 leukemia cells [1]; [17]): 115%
Survival rate (T/C, %) (L1210 leukemia cells [1]; [18]): 115%
Survival rate (T/C, %) (L1210 leukemia cells [1]; [19]): 135%
Survival rate (T/C, %) (L1210 leukemia cells [1]; [20]): 160%
IC50 [2]: 0.34 µg/mL (≈ 0.706 µM)
IC90 [2]: 2.5 µg/mL (≈ 5.19 µM)
IC50 [3]: 0.22 µg/mL (≈ 0.457 µM)
IC90 [3]: 2.5 µg/mL (≈ 5.19 µM)
MIC (Bacillus megatherium APF): 6.25 µg/mL (≈ 13 µM)
MIC (Escherichia coli NIHJ): > 100 µg/mL
MIC [4]: 6.25 µg/mL (≈ 13 µM)
MIC [5]: 12.5 µg/mL (≈ 26 µM)
MIC (Sarcina lutea PCI 1001): 6.25 µg/mL (≈ 13 µM)
MIC [6]: 100 µg/mL (≈ 208 µM)
MIC [7]: 12.5 µg/mL (≈ 26 µM)
MIC [8]: 3.12 µg/mL (≈ 6.48 µM)
MIC (Microccus flavus FDA 16): 6.25 µg/mL (≈ 13 µM)
MIC [9]: 12.5 µg/mL (≈ 26 µM)
MIC (Salmonella typhi T - 63): > 100 µg/mL
MIC [10]: > 100 µg/mL
MIC [11]: 12.5 µg/mL (≈ 26 µM)
MIC [12]: 100 µg/mL (≈ 208 µM)
MIC [13]: 6.25 µg/mL (≈ 13 µM)
MIC [14]: 25 µg/mL (≈ 51.9 µM)
MIC (Candida albicans 3147): 100 µg/mL (≈ 208 µM)
IC50 (L1210 leukemia cells [15]; [21]): 0.09 µg/mL (≈ 0.187 µM)
IC50 (L1210 leukemia cells [15]; [22]): 0.01 µg/mL (≈ 0.0208 µM)
